Laboratory results from patent publication US7312248B2, “Control of parasites in animals by the use of novel trifluoromethanesulfonanilide oxime ether derivatives” (Schering-Plough Animal Health Corporation, priority 2004, dated 2007).
Read-outs that look alike come from different tables or passages of the source.

Columns and labels:
Type in all cases: in vivo
[1] = system: cat flea (Ctenocephalides felis); experiment: whole plant or invertebrate; conditions: Ctenocephalides felis, Laboratory 1 A data
In short: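 Single-dose screen at 1.26 μg/cm^2: acetone solution dried for 24 h on a Coatasil-treated 159 mm^2 flask base, then 15 adult cat fleas aged 3-7 days per flask, four or more replicates, acetone control. Percent dead, meaning not moving or unable to right themselves, recorded after 8, 24 and/or 48 h at 25 °C and 75% RH.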

[2] = system: cat flea (Ctenocephalides felis); experiment: Ctenocephalides felis adulticide assay: dose response (LC50)
In short: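 Groups of 15 adult cat fleas, 3–7 days post-emergence, were exposed for 24 h at 25° C and 75% humidity to glass flask bases coated with six serial doses in acetone and dried for 24 h. Mortality was scored at 8 and 24 h, and LC50 was the surface-treatment concentration killing 50%.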

[3] = system: Brown Dog Tick (Rhipicephalus sanguineus); experiment: Rapid screening protocol for topical application on brown dog ticks; conditions: 48 h; Laboratory 2 F data
Haemonchus contortus = Haemonchus contortus larvacidal (larval development) assay; conditions: 144 h, read-out: Haemonchus contortus LD99
In short: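 Nematode eggs placed on agar containing compound (12 two-fold dilutions, final 0.024–50 μg/ml) and left 6 days to develop to L3. LD99 is the lowest concentration inhibiting development of 99% of larvae, derived from well titre (2^n−1) and top concentration.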

[4] = 8 h, read-out: C. felis Mortality (%) 8 h, 8 h
[5] = 24 h, read-out: C. felis Mortality (%) 24 h, 24 h

SMILES	mortality at 1.26 µg/cm2, 1.26 µg/cm2 [1, 4] [%]	mortality at 1.26 µg/cm2, 1.26 µg/cm2 [1, 5] [%]	C. felis LC50 ([2]; Laboratory 1 C data) [μg/cm^2]	C. felis LC50 ([2]; Laboratory 2 D data) [μg/cm^2]	R. sanguineus Mortality (%) 48 h [3] [%]	IC99 (Haemonchus contortus) [µg/mL]
CC/C(=N\OCc1ccc(C(F)(F)F)cc1)c1cc(Cl)ccc1NS(=O)(=O)C(F)(F)F [Compound 9]	86	98	0.1	0.01	95	0.6
CC/C(=N\OCc1ccc(Cl)cc1)c1cc(Cl)ccc1NS(=O)(=O)C(F)(F)F [Compound 11, N-{4-chloro-2-[1-(4-chlorobenzyloxyimino)propyl]phenyl}trifluoromethanesulfonamide]	87	100	0.1	0.01	97	0.7
